# The source made the active and inactive calls. The calls are words filed in the database; no cut-off is given here.
# Columns and labels:
# [1] = target: T1, Nuclear factor erythroid 2-related factor 2 (Mus musculus) (UniProt Q60795); assay: Induction of NRF2 stabilization in C57BL/6 mouse bone marrow cells exposed to 21% oxygen at 2 uM incubated for 1 hr; assay type: cell-based; conditions: Bone marrow cell
# T1 sequence (whole entry): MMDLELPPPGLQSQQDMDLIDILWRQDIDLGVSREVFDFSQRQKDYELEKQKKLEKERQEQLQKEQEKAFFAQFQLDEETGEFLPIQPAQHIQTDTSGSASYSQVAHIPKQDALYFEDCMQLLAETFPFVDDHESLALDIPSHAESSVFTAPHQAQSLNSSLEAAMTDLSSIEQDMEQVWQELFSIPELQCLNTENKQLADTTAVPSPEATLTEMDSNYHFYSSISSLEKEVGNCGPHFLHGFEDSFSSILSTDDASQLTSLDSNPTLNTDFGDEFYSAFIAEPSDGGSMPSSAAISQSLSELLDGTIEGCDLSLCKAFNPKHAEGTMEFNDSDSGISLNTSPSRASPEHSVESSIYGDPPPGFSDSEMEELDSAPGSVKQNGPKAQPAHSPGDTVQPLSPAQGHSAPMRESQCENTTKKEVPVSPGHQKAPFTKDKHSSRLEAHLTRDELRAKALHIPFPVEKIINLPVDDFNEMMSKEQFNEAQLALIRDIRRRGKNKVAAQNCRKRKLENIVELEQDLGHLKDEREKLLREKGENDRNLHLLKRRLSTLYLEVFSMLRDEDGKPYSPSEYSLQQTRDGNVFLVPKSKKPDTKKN
# [2] = target: T1, Nuclear factor erythroid 2-related factor 2 (Mus musculus); assay: Activation of NRF2 in C57BL/6 mouse bone marrow cells assessed as increase in Gclm gene expression exposed to 4% oxygen at 2 uM incubated for 4 hrs by qRT-PCR analysis; assay type: cell-based; conditions: Bone marrow cell
# [3] = target: T1, Nuclear factor erythroid 2-related factor 2 (Mus musculus); assay: Activation of NRF2 in C57BL/6 mouse bone marrow cells exposed to 4% oxygen at 2 uM incubated for 1 hr; assay type: cell-based; conditions: Bone marrow cell
# [4] = target: T1, Nuclear factor erythroid 2-related factor 2 (Mus musculus); assay: Activation of NRF2 in C57BL/6 mouse bone marrow cells assessed as increase in GCLM level exposed to 21% oxygen at 2 uM incubated for 7 hrs by Western blot analysis; assay type: cell-based; conditions: Bone marrow cell
# [5] = target: T1, Nuclear factor erythroid 2-related factor 2 (Mus musculus); assay: Activation of NRF2 in C57BL/6 mouse bone marrow cells assessed as nuclear translocation of NRF2 exposed to 1% oxygen at 2 uM incubated for 1 hr by Western blot analysis; assay type: cell-based; conditions: Bone marrow cell
# Bone marrow cell = assay: Upregulation of Nfe2l2 gene expression in C57BL/6 mouse bone marrow cells exposed to 4% oxygen at 2 uM incubated for 4 hrs by qRT-PCR analysis; assay type: functional, cell-based
# [6] = target: T1, Nuclear factor erythroid 2-related factor 2 (Mus musculus); assay: Induction of NRF2 stabilization in C57BL/6 mouse bone marrow cells exposed to 1% oxygen at 2 uM incubated for 1 hr; assay type: cell-based; conditions: Bone marrow cell
# [7] = target: T1, Nuclear factor erythroid 2-related factor 2 (Mus musculus); assay: Induction of NRF2 stabilization in C57BL/6 mouse bone marrow cells exposed to 4% oxygen at 2 uM incubated for 1 hr; assay type: cell-based; conditions: Bone marrow cell
# [8] = target: T1, Nuclear factor erythroid 2-related factor 2 (Mus musculus); assay: Activation of NRF2 in C57BL/6 mouse bone marrow cells assessed as increase in Hmox1 gene expression exposed to 1% oxygen at 2 uM incubated for 4 hrs by qRT-PCR analysis; assay type: cell-based; conditions: Bone marrow cell
# [9] = target: T1, Nuclear factor erythroid 2-related factor 2 (Mus musculus); assay: Activation of NRF2 in C57BL/6 mouse bone marrow cells exposed to 1% oxygen at 2 uM incubated for 1 hr; assay type: cell-based; conditions: Bone marrow cell
# [10] = target: T1, Nuclear factor erythroid 2-related factor 2 (Mus musculus); assay: Activation of NRF2 in C57BL/6 mouse bone marrow cells assessed as increase in Gclm gene expression exposed to 1% oxygen at 2 uM incubated for 4 hrs by qRT-PCR analysis; assay type: cell-based; conditions: Bone marrow cell
# [11] = target: T1, Nuclear factor erythroid 2-related factor 2 (Mus musculus); assay: Activation of NRF2 in C57BL/6 mouse bone marrow cells assessed as increase in GCLM level exposed to 1% oxygen at 2 uM incubated for 7 hrs by Western blot analysis; assay type: cell-based; conditions: Bone marrow cell
# [12] = target: T1, Nuclear factor erythroid 2-related factor 2 (Mus musculus); assay: Activation of NRF2 in C57BL/6 mouse bone marrow cells exposed to 21% oxygen at 2 uM incubated for 1 hr; assay type: cell-based; conditions: Bone marrow cell
# [13] = target: T1, Nuclear factor erythroid 2-related factor 2 (Mus musculus); assay: Activation of NRF2 in C57BL/6 mouse bone marrow cells assessed as increase in Hmox1 gene expression exposed to 4% oxygen at 2 uM incubated for 4 hrs by qRT-PCR analysis; assay type: cell-based; conditions: Bone marrow cell
# [14] = target: T1, Nuclear factor erythroid 2-related factor 2 (Mus musculus); assay: Activation of NRF2 in C57BL/6 mouse bone marrow cells assessed as increase in HO-1 level exposed to 21% oxygen at 2 uM incubated for 4 hrs by Western blot analysis; assay type: cell-based; conditions: Bone marrow cell, filed as activator
# [15] = target: T1, Nuclear factor erythroid 2-related factor 2 (Mus musculus); assay: Activation of NRF2 in C57BL/6 mouse bone marrow cells assessed as nuclear translocation of NRF2 exposed to 1% oxygen at 2 uM incubated for 1 hr by IHC analysis; assay type: cell-based; conditions: Bone marrow cell, filed as activator
# [16] = target: T1, Nuclear factor erythroid 2-related factor 2 (Mus musculus); assay: Activation of NRF2 in C57BL/6 mouse bone marrow cells assessed as fold increase in HO-1 level exposed to 1% oxygen at 2 uM incubated for 4 hrs by Western blot analysis relative to control; assay type: cell-based; conditions: Bone marrow cell, filed as activator
# [17] = target: T1, Nuclear factor erythroid 2-related factor 2 (Mus musculus); assay: Activation of NRF2 in C57BL/6 mouse bone marrow cells assessed as fold increase in HO-1 level exposed to hypoxic condition at 2 uM incubated for 4 hrs by Western blot analysis; assay type: cell-based; conditions: Bone marrow cell, filed as activator
SMILES,Activity [1],Activity [6],Activity [7],Activity [12],Activity ([3]; filed as activator),Activity ([9]; filed as activator),Activity [14],Activity ([4]; filed as activator),Activity ([5]; filed as activator),Activity ([11]; filed as activator),Activity (Bone marrow cell),Activity ([2]; filed as activator),Activity ([8]; filed as activator),Activity ([10]; filed as activator),Activity ([13]; filed as activator),further results
CCCCCCC=C/C=C(\CCCCCCCC(=O)O)[N+](=O)[O-],Active,Active,Active,inactive,Active,Active,,,,,inactive,Active; Compound Exhibited Upregulation That Was Dependent On Oxygen Levels Or Specific Target Genes,Active; Compound Exhibited Upregulation That Was Dependent On Oxygen Levels Or Specific Target Genes,Active; Compound Exhibited Upregulation That Was Dependent On Oxygen Levels Or Specific Target Genes,Active; Compound Exhibited Upregulation That Was Dependent On Oxygen Levels Or Specific Target Genes,
CCCCC/C=C\C/C(=C\CCCCCCCC(=O)O)[N+](=O)[O-],Active,Active,Active,inactive,Active,,,Active,,,inactive,Active; Compound Exhibited Upregulation That Was Dependent On Oxygen Levels Or Specific Target Genes,Active; Compound Exhibited Upregulation That Was Dependent On Oxygen Levels Or Specific Target Genes,Active; Compound Exhibited Upregulation That Was Dependent On Oxygen Levels Or Specific Target Genes,Active; Compound Exhibited Upregulation That Was Dependent On Oxygen Levels Or Specific Target Genes,Activity [17]: Active

# Second part, led by results:
Activity [1],Activity [6],Activity [7],Activity [12],Activity ([3]; filed as activator),Activity ([9]; filed as activator),Activity [14],Activity ([4]; filed as activator),Activity ([5]; filed as activator),Activity ([11]; filed as activator),SMILES,Activity (Bone marrow cell),Activity ([2]; filed as activator),Activity ([8]; filed as activator),Activity ([10]; filed as activator),Activity ([13]; filed as activator),further results
Active,Active,Active,inactive,,,,,,,CCCCCCCCC(CCCCCCCCC(=O)O)[N+](=O)[O-] (configuration not stated),inactive,,,,,Activity [2]: inactive; Activity [3]: inactive; Activity [4]: inactive; Activity [5]: inactive; Activity [8]: inactive; Activity [9]: inactive; Activity [10]: inactive; Activity [11]: inactive; Activity [13]: inactive
Active,Active,Active,inactive,,Active,Active,Active,Active,Active,CCCCCCCC/C(=C\CCCCCCCC(=O)O)[N+](=O)[O-],inactive,Active,Active,Active,Active,Activity [15]: Active
Active,Active,Active,inactive,,Active,Active,Active,Active,Active,CCCCCCCC/C=C(\CCCCCCCC(=O)O)[N+](=O)[O-],Active,Active,Active,Active,Active,fold change (FC) [16]: 1.8

# Source: ChEMBL document CHEMBL6109182, “Regio- and Stereoselective Synthesis of Nitro-fatty Acids as NRF2 Pathway Activators Working under Ambient or Hypoxic Conditions” (J Med Chem, 2025)
